Source: the NIST ThermoML archive (doi:10.1021/je300993n)
Numbers after ± are expanded uncertainties.

Columns and labels:
[1] = for mass density: 293.15 K, 101.33 kPa, gas displacement
[2] = refractive index (Na D-line) (dimensionless); wn = mass fraction of the nth substance listed; settings: 293.15 K, 101 kPa, Liquid, Standard Abbe refractometry
[3] = refractive index (Na D-line) (dimensionless); settings: 293.15 K; 101.33 kPa; Liquid; Standard Abbe refractometry

CC[N+](CC)(CC)CC.[F][Sb-]([F])([F])([F])([F])[F] [tetraethylammonium hexafluoroantimonate]
mass density ([1]; Liquid): 1715 ± 16 kg/m3

CC[N+](CC)(CC)CC.[F][Sb-]([F])([F])([F])([F])[F] [tetraethylammonium hexafluoroantimonate] + O=S(=O)(O)C(F)(F)F
refractive index ([2]; w1 = 0.1): 1.3349 ± 0.0051 | refractive index ([2]; w1 = 0.2): 1.3408 ± 0.0051 | refractive index ([2]; w1 = 0.3): 1.3498 ± 0.0051 | refractive index ([2]; w1 = 0.4): 1.3571 ± 0.0051 | refractive index ([2]; w1 = 0.5): 1.3641 ± 0.0051 | refractive index ([2]; w1 = 0.6): 1.3678 ± 0.005

O=S(=O)(O)C(F)(F)F [methanesulfonic acid, trifluoro-] + CCCCCC[N+](CC)(CC)CC.[F][Sb-]([F])([F])([F])([F])[F]
refractive index ([2]; w2 = 0): 1.3292 ± 0.005

CCCCCC[N+](CC)(CC)CC.F[P-](F)(F)(F)(F)F [N,N,N-triethyl-N-hexylammonium hexafluorophosphate]
mass density ([1]; Crystal): 1351 ± 16 kg/m3 | Normal melting temperature ([1]; Crystal, DTA): 161.60 ± 0.5 °C

CC[N+](CC)(CC)CC.F[B-](F)(F)F [tetraethylammonium tetrafluoroborate] + O=S(=O)(O)C(F)(F)F
refractive index ([2]; w1 = 0.1): 1.3421 ± 0.0051 | refractive index ([2]; w1 = 0.2): 1.3512 ± 0.0051 | refractive index ([2]; w1 = 0.3): 1.3601 ± 0.0051 | refractive index ([2]; w1 = 0.4): 1.3656 ± 0.0051 | refractive index ([2]; w1 = 0.5): 1.3732 ± 0.0051

CCCCCC[N+](CC)(CC)CC.F[B-](F)(F)F [N,N,N-triethyl-N-hexylammonium tetrafluoroborate]
mass density ([1]; Crystal): 1094 ± 16 kg/m3 | Normal melting temperature ([1]; Crystal, DTA): 88.20 ± 0.5 °C

O=S(=O)(O)C(F)(F)F [methanesulfonic acid, trifluoro-] + CCCCCCCC[N+](CC)(CC)CC.F[B-](F)(F)F
refractive index ([2]; w2 = 0): 1.3292 ± 0.005

CCCCCCCC[N+](CC)(CC)CC.F[P-](F)(F)(F)(F)F [N,N,N-triethyl-N-octylammonium hexafluorophosphate] + O=S(=O)(O)C(F)(F)F
refractive index ([2]; w1 = 0.1): 1.3427 ± 0.0052 | refractive index ([2]; w1 = 0.2): 1.3562 ± 0.0052 | refractive index ([2]; w1 = 0.3): 1.3681 ± 0.0051 | refractive index ([2]; w1 = 0.4): 1.3781 ± 0.0051 | refractive index ([2]; w1 = 0.5): 1.3875 ± 0.0051

O=S(=O)(O)C(F)(F)F [methanesulfonic acid, trifluoro-] + CC[N+](CC)(CC)CC.F[B-](F)(F)F
refractive index ([2]; w2 = 0): 1.3292 ± 0.005

CCCCCC[N+](CC)(CC)CC.F[B-](F)(F)F [N,N,N-triethyl-N-hexylammonium tetrafluoroborate] + O=S(=O)(O)C(F)(F)F
refractive index ([2]; w1 = 0.1): 1.3475 ± 0.0052 | refractive index ([2]; w1 = 0.2): 1.3572 ± 0.0051 | refractive index ([2]; w1 = 0.3): 1.3654 ± 0.0051 | refractive index ([2]; w1 = 0.4): 1.3728 ± 0.0051 | refractive index ([2]; w1 = 0.5): 1.3782 ± 0.0051

CCCCCC[N+](CC)(CC)CC.[F][Sb-]([F])([F])([F])([F])[F] [N,N,N-triethyl-N-hexylammonium hexafluoroantimonate] + O=S(=O)(O)C(F)(F)F
refractive index ([2]; w1 = 0.1): 1.3381 ± 0.0051 | refractive index ([2]; w1 = 0.2): 1.3462 ± 0.0051 | refractive index ([2]; w1 = 0.3): 1.3563 ± 0.0051 | refractive index ([2]; w1 = 0.4): 1.3628 ± 0.0051 | refractive index ([2]; w1 = 0.5): 1.3722 ± 0.0051 | refractive index ([2]; w1 = 0.6): 1.3809 ± 0.0051

O=S(=O)(O)C(F)(F)F [methanesulfonic acid, trifluoro-]
refractive index [3]: 1.3292 ± 0.005

CC[N+](CC)(CC)CC.F[P-](F)(F)(F)(F)F [tetraethylammonium hexafluorophosphate]
mass density ([1]; Crystal): 1440 ± 16 kg/m3 | Normal melting temperature ([1]; Crystal, DTA): 77.10 ± 0.5 °C

O=S(=O)(O)C(F)(F)F [methanesulfonic acid, trifluoro-] + CC[N+](CC)(CC)CC.F[P-](F)(F)(F)(F)F
refractive index ([2]; w2 = 0): 1.3292 ± 0.005

CCCCCCCC[N+](CC)(CC)CC.F[P-](F)(F)(F)(F)F [N,N,N-triethyl-N-octylammonium hexafluorophosphate]
mass density ([1]; Crystal 2): 1190 ± 16 kg/m3 | Normal melting temperature ([1]; Crystal 1, DTA): 88.30 ± 0.5 °C | Triple point temperature ([1]; Crystal 2, DTA): 311.65 ± 0.5 K
